For experiment [1], the system named is carbachol (CCh) sensitive ion channel. The experiment in a line: Extracellular potential (voltage noise) recording of HEK cells with the instrument of Example 1. Type of experiment: cell-based, human. Particulars: HEK-293 cells; Ringer's solution replaced with Ringer's solution containing CCh 100 μM; FIG. 11 between F1 and G1. How it is done:
(§1) The solution holding section 17 was filled with a culture fluid and 8000 HEK cells are seeded in the holding section in dispersion. The culture fluid used was HEPES buffer DMEM+10 wt % FBS. A cell was sucked from the back surface to be thereby fitted into the hole and thereafter, the culture fluid was replaced with a measurement solution. A composition of the measurement solution was such that Ringer's solution was contained as a base, a Ca concentration was adjusted to 2 mM and an osmotic pressure was set to […].
FIG. 11 is a graph showing a voltage noise when the above Ringer's solution was replaced with a Ringer's solution containing CCh 100 μM using Example 1. […] It was recognized that a voltage noise is increased by CCh dropping (in FIG. 11, between F1 and G1). On the other hand, in FIG. 12, there is shown results obtained by conducting a similar experiment in a convention method (Comparative Example 1). The measurement was obtained in a procedure in which a first stage amplification in the preamplifier was multiplication by a factor of 100 and thereafter further amplified by a factor of 100. LPF was set at 5 kHz. A medicine (CCh) was dropped only for a time expressed with an open square in the figure.

The test system is the same in experiment [2]. The experiment can be described thus: Intracellular potential response of an HEK cell by the patch clamp method (Comparative Example 2). The class given is cell-based, human. To be noted: HEK-293 cell expressing CCh sensitive ion channel; CCh 100 μM; in 6 sec after CCh is dropped; glass patch pipette. How it is done: as §1
In FIG. 13, as Comparative Example 2, there is shown results obtained by measurement of a response of an intracellular potential in an HEK cell for the same medicine in a similar way while a glass patch pipette is attached to the cell using a patch clamp method, which is a conventional method for measurement of an intracellular potential. A CCh concentration was 100 μM in a similar way. […] There is observed a noise change (from F to G in FIG. 13) due to a CCh sensitive channel response.
A general note: Patch clamp records ionic current or voltage across a cell membrane.

With `C[N+](C)(C)CCOC(N)=O` [CCh, carbachol], the “Voltage noise change on CCh dropping” value in experiment [1] is given as “increased”. In addition, in experiment [2], the “Depolarization of intracellular potential” value is “about 10 mV”.

Values taken from patent US8435393B2, “Instrument and system for pharmacologic measurement and well vessel used therein” (Panasonic Corporation, priority 2003, dated 2013).
